From ChEMBL document CHEMBL3861946 (Medchemcomm, 2016)
Where a SMILES comes first, the peptide text is derived from it. The star is where a group is joined. Cbz = O=C(OCc1ccccc1)*; CH2F = FC*

How the values were obtained:
Caspase-3 = molecular target: T1, Caspase-3 (Homo sapiens, UniProt P42574); experiment: Inhibition of recombinant human caspase-3 using Ac-DEVD-AMC as substrate preincubated for 10 mins followed by substrate addition measured after 60 mins by fluorometric assay
T1 sequence (P42574 whole entry): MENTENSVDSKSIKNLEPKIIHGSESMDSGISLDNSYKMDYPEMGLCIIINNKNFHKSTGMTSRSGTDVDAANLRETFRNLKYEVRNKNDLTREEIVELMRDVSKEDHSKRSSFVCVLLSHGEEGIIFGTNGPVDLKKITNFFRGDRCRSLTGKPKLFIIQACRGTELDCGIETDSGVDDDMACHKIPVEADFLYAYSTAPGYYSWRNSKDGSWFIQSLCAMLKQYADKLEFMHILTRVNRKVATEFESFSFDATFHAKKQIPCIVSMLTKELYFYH

[1] = molecular target: T2, Amine oxidase [flavin-containing] A (Homo sapiens, UniProt P21397); experiment: Inhibition of recombinant human MAOA using kynuramine as substrate assessed as decrease in formation of 4-hydroxyquinoline incubated for 20 mins by fluorescence assay
T2 sequence (P21397 whole entry): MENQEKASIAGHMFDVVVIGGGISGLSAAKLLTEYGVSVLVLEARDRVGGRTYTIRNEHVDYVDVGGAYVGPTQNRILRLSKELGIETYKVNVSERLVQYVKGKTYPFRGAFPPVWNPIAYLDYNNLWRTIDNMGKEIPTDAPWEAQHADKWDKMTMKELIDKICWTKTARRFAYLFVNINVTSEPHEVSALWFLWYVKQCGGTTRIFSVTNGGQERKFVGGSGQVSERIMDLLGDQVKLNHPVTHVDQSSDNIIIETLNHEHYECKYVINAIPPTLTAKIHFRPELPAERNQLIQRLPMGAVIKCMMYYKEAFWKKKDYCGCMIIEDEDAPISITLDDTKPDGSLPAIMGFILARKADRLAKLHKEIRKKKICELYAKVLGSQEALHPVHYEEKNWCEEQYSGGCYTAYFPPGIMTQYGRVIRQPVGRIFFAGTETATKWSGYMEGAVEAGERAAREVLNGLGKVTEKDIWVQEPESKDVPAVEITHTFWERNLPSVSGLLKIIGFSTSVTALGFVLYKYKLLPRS

Homo sapiens = species on record: Homo sapiens; experiment: Selectivity ratio of IC50 for recombinant human MAOB to IC50 for recombinant human MAOA
[2] = molecular target: T3, Amine oxidase [flavin-containing] B (Homo sapiens, UniProt P27338); experiment: Inhibition of recombinant human MAOB using kynuramine as substrate assessed as decrease in formation of 4-hydroxyquinoline incubated for 20 mins by fluorescence assay
T3 sequence (P27338 whole entry): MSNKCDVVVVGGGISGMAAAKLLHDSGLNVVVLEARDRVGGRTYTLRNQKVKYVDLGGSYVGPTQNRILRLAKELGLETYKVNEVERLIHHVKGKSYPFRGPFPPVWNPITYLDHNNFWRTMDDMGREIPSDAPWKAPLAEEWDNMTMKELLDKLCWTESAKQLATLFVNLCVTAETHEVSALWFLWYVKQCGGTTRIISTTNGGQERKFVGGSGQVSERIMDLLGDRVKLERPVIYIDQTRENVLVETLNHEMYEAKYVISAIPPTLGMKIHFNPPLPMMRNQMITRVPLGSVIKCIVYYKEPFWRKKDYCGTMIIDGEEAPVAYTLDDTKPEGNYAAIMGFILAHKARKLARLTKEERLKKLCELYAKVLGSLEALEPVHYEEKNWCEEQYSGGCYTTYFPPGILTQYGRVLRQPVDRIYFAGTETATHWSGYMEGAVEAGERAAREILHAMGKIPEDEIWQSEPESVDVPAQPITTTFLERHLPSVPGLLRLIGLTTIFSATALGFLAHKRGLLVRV

[3] = molecular target: T2, Amine oxidase [flavin-containing] A; experiment: Time-dependent inhibition of recombinant human MAOA using kynuramine as substrate assessed as decrease in formation of 4-hydroxyquinoline at 2 times IC50 preincubated for 15 to 60 mins followed by substrate addition measured after 15 mins by fluorescence assay; settings: 0.25 h

| SMILES | IC50 (Caspase-3) | IC50 [1] | Ki [1] | Ratio IC50 (Homo sapiens) | IC50 [2] | Ki [2] | TDI [3] |
| --- | --- | --- | --- | --- | --- | --- | --- |
| C#CCN(C)[C@H](C)Cc1ccccc1 [SELEGILINE] | > 100 µM | – | – | – | – | – | – |
| C#CCN1C(=O)C(=O)c2cc(S(=O)(=O)N(C)Cc3ccc(F)cc3)ccc21 | > 100 µM | 4.31 µM | 1.14 µM | > 23.9 | > 100 µM | – | – |
| C#CCN1C(=O)C(=O)c2cc(S(=O)(=O)N(C)Cc3ccccc3F)ccc21 | – | 9.43 µM | 2.48 µM | – | 128 µM | 55.2 µM | – |
| CN(Cc1cccc(F)c1)S(=O)(=O)c1ccc2c(c1)C(=O)C(=O)N2 | – | 22.8 µM | 6 µM | – | 8.32 µM | 3.58 µM | – |
| C#CCN(C)CCCOc1ccc(Cl)cc1Cl [CLORGILINE] | > 100 µM | – | – | – | – | – | Active |
| COC(=O)C[C@H](NC(=O)[C@H](C)NC(=O)[C@@H](NC(=O)OCc1ccccc1)C(C)C)C(=O)CF (Cbz-Val-Ala-Asp(OMe)-CH2F) | 40 µM | – | – | – | – | – | – |
| O=C1Nc2ccccc2C1=O [ISATIN] | > 100 µM | – | – | – | – | – | – |
| CN(Cc1ccccc1F)S(=O)(=O)c1ccc2c(c1)C(=O)C(=O)N2 | – | 21.6 µM | 5.7 µM | – | > 100 µM | – | – |
| C#CCN1C(=O)C(=O)c2ccccc21 | > 100 µM | 30.9 µM | 8.14 µM | 2.12 | 35.2 µM | 15.1 µM | – |
| C#CCN1C(=O)C(=O)c2cc(S(=O)(=O)N(C)Cc3cccc(F)c3)ccc21 | – | 10.7 µM | 2.81 µM | – | 70.6 µM | 30.4 µM | – |
| CN(Cc1ccc(F)cc1)S(=O)(=O)c1ccc2c(c1)C(=O)C(=O)N2 | – | 8.26 µM | 2.18 µM | – | 5.96 µM | 2.57 µM | – |
